Test results from paper PMC4805781 (International Journal for Parasitology: Drugs and Drug …, 2016).

Tests used:
[1] = system: P. falciparum HB3 infected cultures; assay: High content image-based assay of merozoite egress and invasion; assay type: cell-based, Plasmodium falciparum; details: HB3, treated at 42 hpi, 10 μM, 24 h
[2] = system: Synchronized P. falciparum Dd2 cultures; assay: Flow cytometric profiling of inhibition, YOYO-1 staining; assay type: cell-based, Plasmodium falciparum; details: Dd2, treated at 6 hpi ring stage, 5×EC50, sampled at 12 h intervals
Microsomal stability = assay type: in vitro ADME; details: mouse, liver microsomes
[3] = Double-sink parallel artificial membrane permeability assay; assay type: in vitro ADME

**Q.** What does the source list for C[C@@H]1CC[C@H]2[C@@H](C)C(=O)O[C@@H]3O[C@@]4(C)CC[C@@H]1[C@]32OO4 [artemisinin]?
**A.** Effect on merozoite egress and invasion [1]: did not block merozoite egress or invasion; Effect on parasite maturation by flow cytometry (DNA content) [2]: maturation is blocked

**Q.** With CC(C)C[C@H](NC(=O)[C@H]1O[C@@H]1C(=O)O)C(=O)NCCCCN=C(N)N [E-64] as the compound, how does the “Effect on merozoite egress and invasion” value [1] read?
**A.** blocked egress

**Q.** Which remaining at 1 h (Microsomal stability) does the source give for C[C@]12CC[C@H]3[C@@H](CCC4=CC(=O)CC[C@@]43C)[C@@H]1CC[C@@H]2O [Testosterone] here?
**A.** 26.1%

**Q.** For COCCc1ccc(OCC(O)CNC(C)C)cc1 (stereo not shown) [metoprolol], which “Permeability pH 5.0 (−logPe)” value ([3]; pH 5.0) is on record?
**A.** > 5.4 −logPe

**Q.** What about the “Permeability pH 6.2 (−logPe)” value ([3]; pH 6.2) of the same compound?
**A.** 4.4 −logPe

**Q.** What about the “Permeability pH 7.4 (−logPe)” value ([3]; pH 7.4) of the same compound?
**A.** 3.6 −logPe
